Laboratory results as given in patent publication US20240002846A1, “COMPOSITIONS AND METHODS FOR THE DIAGNOSIS AND TREATMENT OF ITCH” (Duke University, priority 2020, published 2024).
Entries after “also recorded” stand apart in the source; their conditions may differ.

Legend:
[1] = cited from earlier work
[2] = tested on: human TRPV4 mutations (R746C, R746G, R746D, K754G, R757G, R774G, and W776G); assay: Ca2+ imaging in HEK cells transfected with human TRPV4 mutations; format: cell-based; conditions: except a reduction with mutation W776G
Description: Cell culture and transfection. HEK293 cells (ATCC® CRL-1573) were cultured on poly-D-lysine coated coverslips in 24-well plate containing DMEM media with high-Glucose (Gibco, Gaithersburg, MD) supplemented with 10% fetal bovine serum (FBS, HyClone Laboratories, Logan, UT) and 100 U/mL of penicillin/streptomycin (Gibco, Gaithersburg, MD). Cell cultures were maintained with 5% of CO2 in a humidified incubator at 37° C. HEK cells were transfected with rat or human wild type or mutant TRPV4 channels with EGFP or YFP coupled to their C-termini (1.5 μg of plasmid for excised patch clamp and Ca^2+ imaging and 200 ng for single-channel experiments). The jetPEI™ Polyplus transfection reagent (Polyplus Transfection, New York, NY) for electrophysiology or Lipofectamine™ 2000 Reagent (Invitrogen, Waltham, MA) for Ca^2+ imaging were used for transfections per manufacturer's instructions as previously described (Chen et al. Pain 2014, 155, 2662-2672; Morales-Lazaro et al. Nat. Commun. 2016, 7, 13092). […]
(§1) In vitro and ex vivo Ca^2+ imaging. […] Ratios of emissions were acquired at 0.5 Hz. ΔR/R0 was determined as the fraction of the increase of a given ratio over baseline ratio divided by baseline ratio. […]

hTRPV4 = target: T1, hTRPV4 (Homo sapiens, UniProt Q9HBA0); assay: Single-channel recordings of hTRPV4 in HEK293 cells; format: biochemical; conditions: +60 mV; 100 nM GSK101 or 5 μM LPC 18:1
T1 construct: expressed in transfected cells; host or cells: HEK293 (ATCC CRL-1573)
T1 sequence (Q9HBA0 whole entry): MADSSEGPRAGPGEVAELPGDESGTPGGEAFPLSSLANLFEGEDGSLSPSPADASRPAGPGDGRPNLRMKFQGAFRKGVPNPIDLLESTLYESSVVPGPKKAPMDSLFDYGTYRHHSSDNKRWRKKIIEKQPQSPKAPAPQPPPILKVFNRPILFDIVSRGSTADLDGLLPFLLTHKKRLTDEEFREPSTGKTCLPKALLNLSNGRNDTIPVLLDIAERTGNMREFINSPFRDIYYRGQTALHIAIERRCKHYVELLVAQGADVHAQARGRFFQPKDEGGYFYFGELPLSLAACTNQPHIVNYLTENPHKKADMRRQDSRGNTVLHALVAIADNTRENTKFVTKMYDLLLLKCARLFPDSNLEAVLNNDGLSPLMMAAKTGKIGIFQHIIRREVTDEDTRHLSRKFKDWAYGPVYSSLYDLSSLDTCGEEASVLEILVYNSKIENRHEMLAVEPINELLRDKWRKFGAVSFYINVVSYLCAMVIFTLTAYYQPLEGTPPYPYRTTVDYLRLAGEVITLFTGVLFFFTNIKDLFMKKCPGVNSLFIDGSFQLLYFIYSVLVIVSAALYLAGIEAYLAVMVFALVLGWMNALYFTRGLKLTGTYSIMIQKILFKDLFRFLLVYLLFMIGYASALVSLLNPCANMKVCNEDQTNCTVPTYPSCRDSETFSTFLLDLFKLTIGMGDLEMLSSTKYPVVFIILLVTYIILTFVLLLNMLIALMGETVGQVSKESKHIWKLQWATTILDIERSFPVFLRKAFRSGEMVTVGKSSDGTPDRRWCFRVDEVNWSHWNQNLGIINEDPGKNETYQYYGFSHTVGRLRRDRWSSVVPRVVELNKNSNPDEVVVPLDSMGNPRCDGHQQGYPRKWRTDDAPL
Description: (§2) Cell culture and transfection. HEK293 cells (ATCC® CRL-1573) were cultured on poly-D-lysine coated coverslips in 24-well plate containing DMEM media with high-Glucose (Gibco, Gaithersburg, MD) supplemented with 10% fetal bovine serum (FBS, HyClone Laboratories, Logan, UT) and 100 U/mL of penicillin/streptomycin (Gibco, Gaithersburg, MD). Cell cultures were maintained with 5% of CO2 in a humidified incubator at 37° C. HEK cells were transfected with rat or human wild type or mutant TRPV4 channels with EGFP or YFP coupled to their C-termini (1.5 μg of plasmid for excised patch clamp and Ca^2+ imaging and 200 ng for single-channel experiments). The jetPEI™ Polyplus transfection reagent (Polyplus Transfection, New York, NY) for electrophysiology or Lipofectamine™ 2000 Reagent (Invitrogen, Waltham, MA) for Ca^2+ imaging were used for transfections per manufacturer's instructions as previously described (Chen et al. Pain 2014, 155, 2662-2672; Morales-Lazaro et al. Nat. Commun. 2016, 7, 13092). To investigate whether miR-146a can directly activate TRPV1 channels or indirectly via TLRs, HEK293 cells were transfected with rTRPV1 or co-transfected rTRPV1 with rTLR7, rTLR2, or rTLR6 (Addgene, Watertown, MA) for Ca^2+ imaging assay. Control cells were transfected with GFP or YFP.
For single-channel recordings, Borosilicate glass […]) pipettes were used. Recordings were obtained at +60 mV by acquiring several traces of 1-3 s duration. The effect of GSK1016790A or LPC 18:1 on single TRPV4 channels was studied in inside-out. Currents were filtered at 2 kHz and sampled at 5 kHz. […] Single-channel openings and closures were identified with the half-threshold crossing technique (Morales-Lazaro et al. Nat. Commun. 2016, 7, 13092). The channel open probability was calculated as the sum of the total open time divided by the sweep duration. Dwell times and amplitude histograms in the closed or open states were collected in logarithmic time histograms according to the Sine-Sigworth transformation (Sigworth et al. Biophys. J. 1987, 52, 1047-1054). Sums of three or two exponential components were fitted to histograms using a least-squares algorithm.

[3] = tested on: rat TRPV4 mutations (R746C, R746G, R746D, K754G, R757G, R774G, and W776G); assay: Ca2+ imaging in HEK cells transfected with rat TRPV4 mutations; format: cell-based; conditions: except a reduction with mutation W776G
Description: as §2
Site-directed mutagenesis of TRPV4 channels. TRPV4 sequences of multiple species were aligned using Clustal Omega program. Site-directed mutagenesis to generate point mutations in rat and human TRPV4 channels were carried out using Phusion DNA polymerase enzyme (Salazar et al. Nat. Struct. Mol. Biol. 2009, 16, 704-710; Rosenbaum et al. Neuron 2002, 33, 703-713; Hsieh et al. Methods Mol. Biol. 2013, 978, 173-186), with final sequencing to check for presence of the induced mutation. We introduced the following mutations into the rTRPV4 or hTRPV4 channel: R746C, R746G, R746D, K754G, R757G, R774G, and W776G.
as §1

mice = assay: Effect of inhibitor pretreatment on LPA-, LPC- or miR-146a-induced scratching behavior; format: in vivo, mouse; conditions: i.t. 200 ng/5 μL, about 2 weeks before
Description: Behavioral assessment. Mice were shaved at the dorsal neck 1 d before experiments. […] After injections, mice were immediately placed back to the chamber, and the scratching behavior was recorded by a Panasonic video camera for 30 min. Hind limb scratching behavior directed toward the injected area at the nape of neck was observed. One scratch is defined as a lifting of the hind limb toward the injection site and then a replacing of the limb back to the floor, regardless of how many scratching strokes take place between those two movements. Behavioral analysis was conducted by observers blinded to genotype.
Control animals received the same volume of vehicles.
Lumbar puncture was made with a 30G-needle and drugs at 5 μL of volume were delivered. Scratching behavior assay was started approximately 2 weeks after resiniferatoxin treatment.

[4] = tested on: TRPV1+ central nerve terminals; assay: Ablation of TRPV1+ central nerve terminals in spinal cord (TRPV1 immunolabeling); format: in vivo, mouse; conditions: i.t. 200 ng/5 μL
Description: To examine whether TRPV1-expressing sensory neurons contribute to LPC- or miR-146α-induced itch, we ablated the central terminals of TRPV1-expressing neurons by i.t. injection of 200 ng resiniferatoxin (RTX) into the L4/L5 subarachnoid space (Mishra et al. Mol. Cell. Neurosci. 2010, 43, 157-163). Lumbar puncture was made with a 30G-needle and drugs at 5 μL of volume were delivered. Scratching behavior assay was started approximately 2 weeks after resiniferatoxin treatment.
Immunohistochemistry and morphometry analysis. Routine procedures were followed (Chen et al. Pain 2014, 155, 2662-2672). Briefly, mice were perfused transcardially with 0.01 M PBS followed by ice-cold 4% paraformaldehyde (PFA, Sigma, St. Louis, MO). Cervical spinal cord, TGs and cervical DRGs, and dorsal neck skin were dissected and post-fixed in 4% PFA overnight, cryoprotected in 20% sucrose (48 h) and sectioned on a cryostat (30 μm for spinal cord, 12 μm for TG and DRG and neck skin). […] 4-6 sections were analyzed per mouse. […] The cutoff density threshold was determined by averaging the density of three neurons per section that were judged to be minimally positive, using ImageJ software. […] Positive cells were expressed as % of total counted TG neurons. The labeling density of TRPV1 in spinal cord was measured using the integrated density algorithm of Image J.

Compound | lethality in-vivo [1] | 10 nM GSK101-induced Ca2+ signal in TRPV4 mutants vs hTRPV4 [2] | open level (single-channel) amplitude (hTRPV4) [pA] | open probability (Po) (hTRPV4) | single channel conductance (gi) (hTRPV4) [pS] | 10 nM GSK101-induced Ca2+ signal in TRPV4 mutants vs rTRPV4 [3] | effect on LPC-induced itch after ablation of TRPV1-expressing terminals (mice) | effect on miR-146a-induced itch after ablation of TRPV1-expressing terminals (mice) | TRPV1+ central nerve terminals in superficial layers of the spinal cord [4]
CC(C)C[C@H](NC(=O)c1cc2ccccc2s1)C(=O)N1CCN(C(=O)[C@H](CO)NS(=O)(=O)c2ccc(Cl)cc2Cl)CC1 [GSK101] | lethal | not significantly disrupted | 6.45±0.55 | 0.85±0.08 | 107 | remained largely active; also recorded: not significantly disrupted | – | – | –
C=C(C)[C@]12C[C@@H](C)[C@@]34O[C@](Cc5ccccc5)(O[C@@H]1[C@@H]3C=C(COC(=O)Cc1ccc(O)c(OC)c1)C[C@]1(O)C(=O)C(C)=C[C@@H]41)O2 [resiniferatoxin] | – | – | – | – | – | – | significantly reduced | significant reduction; also recorded: significantly reduced | Selective ablation; also recorded: Elimination
